Test results taken from patent US12558369B2, “Compositions and methods of treating Fanconi Anemia” (Dana-Farber Cancer Institute, Inc., priority 2015, dated 2026).
Entries after “also recorded” stand apart in the source; their conditions may differ.

Tests used:
[1] = tested on: EUFA316 (FA-G fibroblasts); assay: MMC sensitivity survival assay of FA cells with TGFβ pathway inhibitors; assay type: cell-based, human
Method: (§1) FIG. 1. TGFβ pathway disruption enhances FA cellular growth. • A) RIGER P value analysis to identify top candidate genes. • B) Clonogenic survival of GM6914 (FA-A fibroblasts) and FANCA-corrected GM6914 cells after shRNA mediated knockdown of SMAD3. Cells were treated with increasing doses of MMC and plated for 10-12 days. The average of two experiments is presented; error bars represent s.e.m.
(§2) For survival assays, cells were seeded at a density of 1×10^3 cells per well in 96-well plates. After 72 hours of culture in indicated concentrations of MMC or post exposure of acetaldehyde, viability was assessed using CellTiterGlo reagent (Promega). In order to assess clonogenicity, cells were seeded at a low density (500-1000 cells per well) in 6-well plates and allowed to form colonies. The cells were then fixed in methanol/20% acetic acid and stained with 1% crystal violet. Colony formation was assessed by solubilizing crystal violet stain with methanol and quantifying UV absorbance for each condition.
as §2, with “3-6 days” for “72 hours”, “Colonies were counted after” for “Colony formation was assessed by solubilizing”, “staining.” for “stain with methanol and quantifying UV absorbance for each condition.”

EUFA316 = assay: Acetaldehyde sensitivity survival assay; assay type: cell-based, human; details: EUFA316 cells
Method: as §1, §2
(§3) For survival assays, cells were seeded at a density of 1×10^3 cells per well in 96-well plates. After 3-6 days of culture in indicated concentrations of MMC or post exposure of acetaldehyde, viability was assessed using CellTiterGlo reagent (Promega). […] Colonies were counted after crystal violet staining.

U2OS cells [2] = assay: NHEJ reporter assay; assay type: cell-based, human; details: template reporter assay
U2OS cells [3] = assay: Immunoblot of DNA-PK phosphorylation; assay type: cell-based, human
mouse fibroblast cells = assay: Immunoblot of Smad2 phosphorylation; assay type: cell-based; details: immunoblot of lysates
[4] = tested on: Lin− cells from WT and Fancd2−/− mice; assay: Bone marrow Lin− cell growth under TGF-β1; assay type: cell-based, mouse; details: TGF-β1 1 ng/mL; Ab 10 μg/mL or SD208 10 μM; 5 days
Method: (§4) (A) Expression of phospho-Smad2/3 proteins in HSPCs from WT and Fancd2−/− mice as detected by flow cytometric analysis. (B) Quantification of mean fluorescence intensity (MFI) of phospho-Smad2/3 staining by flow cytometric analysis shown in (A) in HSPCs from WT and Fancd2−/− mice. (C) Fancd2−/− HSPCs are more sensitive to TGF-β1 than WT HSPCs. Sorted Lin− cells from WT or Fancd2−/− mice were exposed to TGF-β1. After 5 days in culture, LSK cells were analyzed by flow cytometry and quantified. Data are shown after normalizing to untreated WT group. […] Sorted Lin− cells from WT and Fancd2−/− mice were exposed to TGF-β1 (1 ng/mL) with or without TGF-beta 1,2,3 Ab (10 μg/mL) or SD208 (10 μM), and viable cells were counted after 5 days in culture. Data shown are after normalizing to untreated WT group. Error bars represent mean±s.e.m. (F) Clonogenic assay of WT and Fancd2−/− HSPCs treated with TGF-β1, TGF-beta 1, 2, 3 Ab or SD208. […] Hematopoietic colonies were counted after 7-10 days in culture. […] (I) Representative FACS plots of LSK cells analyzed by flow cytometry for GFP expression after 5 days in vitro culture in stem cell culture medium. […] Luciferase activity was measured. (L) Binding of FANCD2 to SMAD1 promoter (region −2108 to −1950 bp) upon DNA damage as detected by ChIP assay using anti-FANCD2 antibody in corrected GM6914 (+FANCA) but not GM6914 (+Vector) fibroblast cells. […]

Fancd2−/− HSPCs = assay: Clonogenic assay of HSPCs in methylcellulose; assay type: cell-based, mouse; details: TGF-β1 1 ng/mL, Ab 10 μg/mL or SD208 10 μM; colonies after 7-10 days
Method: as §4

[5] = tested on: GM6914 cells (FA-A cells); assay: Traffic light reporter (TLR) assay of HR and NHEJ; assay type: cell-based, human; details: GM6914, 10 μM SD208, 72 hrs
From the text: FIG. 17. TGF-β pathway Inhibition Increases HR and Decreases NHEJ activities in FA Cells. • (A, B) TGF-β pathway inhibition affects the choice of HR versus NHEJ pathways in repairing individual DNA breakpoints in FA cells. GM6914 cells (FA-A cells) or FANCA corrected GM6914 cells with shControl or shSMAD3 were used to generate traffic light reporter system, and then were infected with GFP-donor template and I-SceI lentivirus to generate DNA breakpoints. Quantification analysis of HR and NHEJ repair events is shown. (B) The ratio of HR to NHEJ activity based on the data in (A). […] Quantification of HR and NHEJ repair events in GM6914 cells exposed to SD-208 for 72 hrs as detected by traffic light reporter assay described in (A). […] HR assay was measured in U2OS cells with DR-GFP reporter after transduction with lentivirus encoding indicated shRNAs. The representative of three independent experiments is presented. […] (F, G) TGF-β pathway inhibition promotes HR activity in FA cells. Representative images (F) and quantification (G) of RAD51 foci in MMC treated GM6914 (FA-A) cells or FANCA corrected GM6914 cells with shRNA-mediated knockdown of SMAD3. […] One hundred cells were scored for RAD51 foci. […]
the presence of 8 μg/mL polybrene. […] Genome engineering events were analyzed by flow cytometry at 72 hours after transduction. NHEJ is represented by mCherry fluorescence, and HR by GFP fluorescence.

GM6914 = assay: MMC cell viability (CellTiterGlo) to identify IC90; assay type: cell-based, human; details: GM6914, MMC for 7 days
Method: FIG. 7. Identification of IC90 concentration of MMC on GM6914 and validation of genome wide RNAi screening for MMC resistance. • A) Identification of IC90 concentration of MMC on GM6914. Cells were treated with different doses of MMC for 7 days, and cell viability was measured using CellTiterGlo reagent. […] Cells were transduced with 6 pools of shRNA retrovirus libraries, and selected with puromycin for 48 h. Cells were then treated with MMC for 7 days, and resistant cells were harvested to re-assess their MMC sensitivity by treated with MMC for 3 days. Data shown represented cells transduced by pool #3, 5 and 6. • C) FANCA deficient fibroblast cells (GM6914) were evaluated for MMC sensitivity after shRNA mediated knockdown of SMAD3 and TP53. Survival was measured after 3 days exposure to indicated concentrations of MMC. […] Error bars represent s.e.m. • D) FANCD2 deficient fibroblast cells (PD20) were evaluated for MMC sensitivity after RNAi mediated knockdown of SMAD3 and TP53. Survival was measured after 3 days exposure to indicated concentrations of MMC. […]
as §3

SMILES	FA cells survival in the presence of MMC ([1]; FA cell lines with inhibitor)	cytotoxicity of corrected FA cells ([1]; corrected FA cells)	survival in the presence of acetaldehyde (EUFA316)	NHEJ activity (U2OS cells [2])	phosphorylation of DNA-PK (U2OS cells [3])	phosphorylation of Smad2 (mouse fibroblast cells)	inhibitory effect of TGF-β1 on bone marrow Lin− cell growth [4]	clonogenic ability of Fancd2−/− HSPCs (Fancd2−/− HSPCs)	HR activity / HR events [5]	NHEJ events [5]	IC90 (GM6914) [nM]
Fc1ccc(Cl)cc1-c1nc(Nc2ccncc2)c2nccnc2n1 [SD208]	improved FA cells survival in the presence of MMC	do not significantly alter cytotoxicity of corrected FA cells	significantly promoted survival	decreased NHEJ	blocks phosphorylation of DNA-PK	reduced phosphorylation of Smad2	rescues inhibitory effect of TGF-β1	markedly enhanced the clonogenic ability	increased HR activity; also recorded: increases HR events	decreases NHEJ events	–
CO[C@@]12[C@H](COC(N)=O)C3=C(C(=O)C(C)=C(N)C3=O)N1C[C@@H]1N[C@@H]12 [MMC, mitomycin C]	–	–	–	–	–	–	–	–	–	–	19
